Source: US20100160297A1, “COMPOUNDS FOR PIM KINASE INHIBITION AND FOR TREATING MALIGNANCY” (Amnestix, Inc., priority 2008, published 2010)
“Also recorded” adds a separate entry of the source. Counter-ions that a name gives are not always drawn.

What was measured:
PIM-1 kinase = target: T1, PIM-1 kinase (Homo sapiens, UniProt P11309); experiment: In vitro assay for PIM-1 kinase inhibition (PIM-1 Kinase Assay Kit, colorimetric ELISA); assay type: biochemical; conditions: for PIM-1 kinase inhibition (result in words): test compound 0.1 to 100 μM, FIG. 1 (1.5 ng PIM-1) and FIG. 2 (2.5 ng PIM-1)
T1 construct: purchased Cell Signaling Technology Inc., Boston, USA
Experimental: (§1) In vitro assays of PIM-1 kinase activity (1.5 ng) in the presence of increasing concentrations of the compounds A, B, C or D were performed as described within example 5. An assay without additional test compound served as positive control for the assay (pos) and an assay without PIM-1 kinase served as negative assay (neg). […] Each assay result was normalized in comparison to the positive control which was defined as 100% activity.
as §1, with “(2.5” for “(1.5”, “compound E” for “compounds A, B, C or D”
The in vitro assay for PIM-1 kinase inhibition was performed using the PIM-1 Kinase Assay Kit (Cell Signaling Technology Inc., Boston, USA) according to the manufacture's instruction. Briefly, 1.5 or 2.5 ng PIM-1 kinase has been dissolved in 50 μl assay buffer (25 mM Tris-Hcl (pH 7.5), 10 mM MgCl2, 5 mM beta-glycerophosphate, 0.1 mM Na3VO4, 2 mM DTT, 200 μM ATP, and 1.5 μM peptide substrate) and test compound has been added to a final concentration in a range of 0.1 to 100 μM. After 30 minutes incubation at ambient temperature the reaction was stopped by adding 50 μl Stop buffer (50 mM EDTA, pH 8) per reaction. An aliquot of 25 μl per reaction was diluted each by 75 μl water and transferred to a 96-well streptavidin-coated plate. After 60 minutes incubation and three times washing with PBS, 100 μl/well primary antibody (Phospho-Bad (Ser112) antibody, 1:1000 diluted in PBS) was added. After further 2 h incubation and three times washing with PBS, an usual colorimetric ELISA assay was performed using a HRP labeled second antibody according to the manufacture's instructions. A PIM kinase reaction without addition of a test compound served as positive control (pos) and an assay without PIM kinase served as negative control (neg). […] The PIM-1 kinase inhibition of the test compounds (1-chloro-5-([1,4]diazepane-1-sulfonyl)-8-propoxy-isoquinoline (compound A), 1-chloro-5-(piperazin-1-sulfonyl)-8-methoxy-isoquinoline (compound B), 1-methyl-5-([1,4]diazepane-1-sulfonyl)-8-methoxy-isoquinoline (compound C), and 1-chloro-5-([1,4]diazepane-1-sulfonyl)-6-methoxy-isoquinoline (compound D)) was measured in a first series of assays, and the one of the compound 5-([1,4]diazepane-1-sulfonyl)-8-methoxy-isoquinoline (compound E) was measured in a second series of assays. Within each series of assays the measured PIM-1 kinase activity was normalized in comparison to the positive control (pos) which was defined as 100% activity. […] The table below summarizes the percentage of the remaining PIM-1 kinase activity in the presence of the test compounds in a final concentration of 100 μM.

T1 sequence (P11309 whole entry): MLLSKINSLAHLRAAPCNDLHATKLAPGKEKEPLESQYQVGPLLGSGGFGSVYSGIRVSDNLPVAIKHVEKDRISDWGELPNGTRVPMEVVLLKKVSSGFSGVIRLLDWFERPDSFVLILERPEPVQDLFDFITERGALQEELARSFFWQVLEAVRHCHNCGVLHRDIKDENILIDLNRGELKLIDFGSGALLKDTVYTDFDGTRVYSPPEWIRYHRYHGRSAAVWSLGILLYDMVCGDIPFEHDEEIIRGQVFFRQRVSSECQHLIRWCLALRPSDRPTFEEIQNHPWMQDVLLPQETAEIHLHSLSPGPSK

SMILES	PIM-1 kinase inhibition (result in words) (PIM-1 kinase)	% remaining PIM-1 kinase activity (PIM-1 kinase; test compound 100 μM final concentration, normalized to positive control (no test compound) = 100% activity, 1.5 or 2.5 ng PIM-1 kinase, 200 μM ATP)	melting point
COc1ccc(S(=O)(=O)N2CCNCC2)c2ccnc(Cl)c12 [B, 1-chloro-5-(piperazin-1-sulfonyl)-8-methoxy-isoquinoline]	potent PIM inhibitory effect; also recorded: potent PIM-1 kinase inhibitors		
COc1ccc(S(=O)(=O)N2CCCNCC2)c2ccnc(Cl)c12 [G, 1-chloro-8-methoxy-Fasudil, reference compound]	very potent PIM-1 inhibitor	17%	
CCCOc1ccc(S(=O)(=O)N2CCCNCC2)c2ccnc(Cl)c12 [Compound A, 1-chloro-5-([1,4]diazepane-1-sulfonyl)-8-propoxy-isoquinoline]	potent PIM inhibitory effect; also recorded: potent PIM-1 kinase inhibitors		
COc1ccc(S(=O)(=O)N2CCCNCC2)c2ccncc12 [E, 5-([1,4]diazepane-1-sulfonyl)-8-methoxy-isoquinoline]	at most a moderate PIM-1 kinase inhibition; also recorded: only weak PIM inhibitory effect		
COc1ccc(S(=O)(=O)N2CCCNCC2)c2ccnc(C)c12 [C, 1-methyl-5-([1,4]diazepane-1-sulfonyl)-8-methoxy-isoquinoline]	potent PIM inhibitory effect; also recorded: potent PIM-1 kinase inhibitors		
COc1ccc2c(Cl)nccc2c1S(=O)(=O)N1CCCNCC1 (as salt: hydrochloride) [1-chloro-5-([1,4]diazepane-1-sulfonyl)-6-methoxy-isoquinoline]			219 to 221 °C
O=S(=O)(c1cccc2cnccc12)N1CCCNCC1 [F, Fasudil, reference compound]	at the most very weak PIM-1 inhibition		
COc1ccc2c(Cl)nccc2c1S(=O)(=O)N1CCCNCC1 [D, 1-chloro-5-([1,4]diazepane-1-sulfonyl)-6-methoxy-isoquinoline]	potent PIM inhibitory effect; also recorded: potent PIM-1 kinase inhibitors		
